Laboratory results published in US20250064789A1, “KETOAMIDE DERIVATIVES AND PHARMACEUTICAL USES THEREOF” (priority 2022, published 2025).

target: recombinant SARS-CoV-2 M^pro (Severe acute respiratory syndrome coronavirus 2 (2019-nCoV) (SARS-CoV-2), UniProt P0DTD1); test: Inhibition of SARS-CoV-2 M^pro enzyme activity (fluorescent substrate assay); format: biochemical; conditions: inhibition of SARS-CoV-2 M^pro enzyme activity; values given in μM; read-out: IC50

SMILES	IC50 [µM]
C[C@@H](NC(=O)C1CCC(F)(F)CC1)C(=O)NCC(=O)C(=O)NCc1ccccn1 [Compound 334]	> 5
COc1cccnc1CNC(=O)C(=O)[C@@H](Cc1ccccc1)NC(=O)[C@@H](C)NC(=O)C1CCC(F)(F)CC1 [Compound 339]	6.13 ± 0.22
C[C@@H](NC(=O)C1CCC(F)(F)CC1)C(=O)N[C@H](Cc1ccccc1)C(=O)C(=O)NCc1ncccc1Cl [Compound 341]	11.5 ± 3.79
C[C@@H](NC(=O)C1CCC(F)(F)CC1)C(=O)N[C@H](Cc1ccccc1)C(=O)C(=O)NCc1c[nH]cn1 [Compound 346]	> 2.5
C[C@@H](NC(=O)C1CCC(F)(F)CC1)C(=O)N[C@H](Cc1ccccc1)C(=O)C(=O)NCc1nccn1C [Compound 347]	> 2.5
Cc1nc(CNC(=O)C(=O)[C@@H](Cc2ccccc2)NC(=O)[C@@H](C)NC(=O)C2CCC(F)(F)CC2)cs1 [Compound 351]	1.16 ± 0.32
C[C@@H](NC(=O)C1CCC(F)(F)CC1)C(=O)N[C@H](Cc1ccccc1)C(=O)C(=O)NCc1ncco1 [Compound 352]	2.5 ± 0.29
C[C@@H](NC(=O)C1CCC(F)(F)CC1)C(=O)N[C@H](Cc1ccccc1)C(=O)C(=O)NCc1nc2ccccc2s1 [Compound 355]	> 2.5
C[C@@H](NC(=O)Cc1cc(OC(F)(F)F)ccc1F)C(=O)N[C@H](Cc1ccccc1)C(=O)C(=O)NCc1nccs1 [Compound 382]	15 ± 1.3

same assay, conditions: inhibition of SARS-CoV-2 M^pro enzyme activity; values in nM; read-out: IC50

SMILES	IC50 [µM]
CC(C)(C(=O)N[C@H](Cc1ccccc1)C(=O)C(=O)NCc1ccccn1)n1cc(-c2ccc(F)cc2)cn1 [Compound 330]	0.195 ± 0.0145
C[C@@H](NS(=O)(=O)c1ccc(F)cc1)C(=O)N[C@H](Cc1ccccc1)C(=O)C(=O)NCc1ccccn1 [Compound 331, (R)-3-((R)-2-((4-fluorophenyl)sulfonamido)propionamido)-2-oxo-4-phenyl-N-(pyridin-2-ylmethyl)butyramide]	0.101 ± 0.0028
C[C@@H](NS(=O)(=O)c1cccnc1)C(=O)N[C@H](Cc1ccccc1)C(=O)C(=O)NCc1ccccn1 [Compound 332]	0.8883 ± 0.0012
C[C@@H](NC(=O)C1CCC(F)(F)CC1)C(=O)N[C@H](Cc1ccccc1)C(=O)C(=O)NCc1ccc(F)cn1 [Compound 336]	0.015 ± 0.0008
C[C@@H](NC(=O)C1CCC(F)(F)CC1)C(=O)N[C@H](Cc1ccccc1)C(=O)C(=O)NCc1ncccn1 [Compound 337]	0.0879 ± 0.0146
C[C@@H](NC(=O)C1CCC(F)(F)CC1)C(=O)N[C@H](Cc1ccccc1)C(=O)C(=O)NCc1ccncn1 [Compound 338]	0.02 ± 0.0008
Cc1cccnc1CNC(=O)C(=O)[C@@H](Cc1ccccc1)NC(=O)[C@@H](C)NC(=O)C1CCC(F)(F)CC1 [Compound 340]	0.0762 ± 0.0017
COc1ccnc(CNC(=O)C(=O)[C@@H](Cc2ccccc2)NC(=O)[C@@H](C)NC(=O)C2CCC(F)(F)CC2)c1 [Compound 342]	0.0222 ± 0.0002
C[C@@H](NC(=O)C1CCC(F)(F)CC1)C(=O)N[C@H](Cc1ccccc1)C(=O)C(=O)NCc1cc(Cl)ccn1 [Compound 343]	0.0183 ± 0.0007
C[C@@H](NC(=O)C1CCC(F)(F)CC1)C(=O)N[C@H](Cc1ccccc1)C(=O)C(=O)NCc1ccc(C(F)(F)F)cn1 [Compound 344]	0.8572 ± 0.0031
COc1ccc(CNC(=O)C(=O)[C@@H](Cc2ccccc2)NC(=O)[C@@H](C)NC(=O)C2CCC(F)(F)CC2)nc1 [Compound 345]	0.0609 ± 0.0047
C[C@@H](NC(=O)C1CCC(F)(F)CC1)C(=O)N[C@H](Cc1ccccc1)C(=O)C(=O)NCc1cocn1 [Compound 350]	0.042 ± 0.0037
C[C@@H](NC(=O)C1CCC(F)(F)CC1)C(=O)N[C@H](Cc1ccccc1)C(=O)C(=O)NCc1ccon1 [Compound 353]	0.8458 ± 0.0021
Cc1cnc(CNC(=O)C(=O)[C@@H](Cc2ccccc2)NC(=O)[C@@H](C)NC(=O)C2CCC(F)(F)CC2)s1 [Compound 356]	0.0431 ± 0.0001
C[C@@H](NC(=O)C1CCC(F)(F)CC1)C(=O)N[C@H](Cc1ccccc1)C(=O)C(=O)NCc1cscn1 [Compound 357]	0.0223 ± 0.0009
CCC[C@@H](NC(=O)[C@@H](C)NC(=O)C1CCC(F)(F)CC1)C(=O)C(=O)NCc1ccccn1 [Compound 358]	0.0932 ± 0.0011
C[C@@H](NC(=O)C1CCC(F)(F)CC1)C(=O)N[C@H](Cc1ccc(F)cc1)C(=O)C(=O)NCc1ccccn1 [Compound 359]	0.0364 ± 0.0019
C[C@@H](NC(=O)C1CCC(F)(F)CC1)C(=O)N[C@H](Cc1cccc(F)c1)C(=O)C(=O)NCc1ccccn1 [Compound 360]	0.031 ± 0.0039
C[C@@H](NC(=O)C1CCC(F)(F)CC1)C(=O)N[C@H](Cc1ccccc1F)C(=O)C(=O)NCc1ccccn1 [Compound 361]	0.0272 ± 0.0028
C[C@@H](NC(=O)CC1CC(F)(F)C1)C(=O)N[C@H](Cc1ccco1)C(=O)C(=O)NCc1ccccn1 [Compound 364]	0.0751 ± 0.0001
C[C@@H](NC(=O)C1CCC(F)(F)CC1)C(=O)N[C@H](CC1CCCCC1)C(=O)C(=O)NCc1ccccn1 [Compound 365]	0.0231 ± 0.001
C[C@@H](NC(=O)C1C[C@@H]2[C@H](C1)C2(F)F)C(=O)N[C@H](Cc1ccco1)C(=O)C(=O)NCc1ccccn1 (stereo partly drawn) [Compound 366]	0.0646 ± 0.0007
C[C@@H](NC(=O)C1CCC(F)(F)CC1)C(=O)N[C@H](Cc1ccco1)C(=O)C(=O)NCc1nccs1 [Compound 367]	0.105 ± 0.0105
C[C@@H](NC(=O)CC1CC1(F)F)C(=O)N[C@H](Cc1ccco1)C(=O)C(=O)NCc1nccs1 (stereo partly drawn) [Compound 368]	0.197 ± 0.014
C[C@@H](NC(=O)C1CCCCCC1)C(=O)N[C@H](Cc1ccccc1)C(=O)C(=O)NCc1nccs1 [Compound 370]	0.0148 ± 0.0007
C[C@@H](NC(=O)C1CC2CCC1C2)C(=O)N[C@H](Cc1ccccc1)C(=O)C(=O)NCc1nccs1 (stereo partly drawn) [Compound 371]	0.0317 ± 0.0026
C[C@@H](NC(=O)C1CC12CCC(F)(F)CC2)C(=O)N[C@H](Cc1ccccc1)C(=O)C(=O)NCc1nccs1 (stereo partly drawn) [Compound 372]	0.0106 ± 0.0004

SMILES	IC50 [µM]
C[C@@H](NC(=O)CC1CCC(F)(F)CC1)C(=O)N[C@H](Cc1ccccc1)C(=O)C(=O)NCc1nccs1 [Compound 373]	0.016 ± 0.0008
C[C@@H](NC(=O)C1(F)CCCCC1)C(=O)N[C@H](Cc1ccccc1)C(=O)C(=O)NCc1nccs1 [Compound 374]	0.0208 ± 0.0016
C[C@@H](NC(=O)CC1CC1(F)F)C(=O)N[C@H](Cc1ccccc1)C(=O)C(=O)NCc1nccs1 (stereo partly drawn) [Compound 376]	0.0352 ± 0.0036
C[C@@H](NC(=O)[C@@H]1C[C@@H]2[C@H](C1)C2(F)F)C(=O)N[C@H](Cc1ccccc1)C(=O)C(=O)NCc1nccs1 [Compound 377]	0.08 ± 0.0036
C[C@@H](NC(=O)c1cc2ccccc2[nH]1)C(=O)N[C@H](Cc1ccccc1)C(=O)C(=O)NCc1nccs1 [Compound 380]	0.0558 ± 0.0072
C[C@@H](NC(=O)c1ccn(-c2ccccc2)n1)C(=O)N[C@H](Cc1ccccc1)C(=O)C(=O)NCc1nccs1 [Compound 381]	0.4168 ± 0.004
C[C@@H](NC(=O)c1cc(Cl)cc(OC(F)(F)F)c1)C(=O)N[C@H](Cc1ccccc1)C(=O)C(=O)NCc1nccs1 [Compound 383]	0.0215 ± 0.0008
COc1ccc(OC(F)(F)F)cc1C(=O)N[C@H](C)C(=O)N[C@H](Cc1ccccc1)C(=O)C(=O)NCc1nccs1 [Compound 384]	0.0155 ± 0.0003
C[C@@H](NC(=O)c1cc(OC(F)(F)F)ccc1F)C(=O)N[C@H](Cc1ccccc1)C(=O)C(=O)NCc1nccs1 [Compound 385]	0.0558 ± 0.0072
O=C(CC1CC1(F)F)NCC(=O)N[C@H](Cc1ccccc1)C(=O)C(=O)NCc1nccs1 (stereo partly drawn) [Compound 386]	0.166 ± 0.0021
O=C(CNC(=O)C1CCC(F)(F)CC1)N[C@H](Cc1ccccc1)C(=O)C(=O)NCc1nccs1 [Compound 388]	0.0629 ± 0.0081
O=C(CNC(=O)[C@@H]1C[C@@H]2[C@H](C1)C2(F)F)N[C@H](Cc1ccccc1)C(=O)C(=O)NCc1nccs1 [Compound 389]	0.11 ± 0.0016
O=C(CC1CCC(F)(F)CC1)NCC(=O)N[C@H](Cc1ccccc1)C(=O)C(=O)NCc1nccs1 [Compound 390]	0.0218 ± 0.0011
O=C(CNC(=O)C1CCC(F)(F)C1)N[C@H](Cc1ccccc1)C(=O)C(=O)NCc1nccs1 (stereo partly drawn) [Compound 391]	0.109 ± 0.0086
COC[C@@H](NC(=O)C1CCC(F)(F)CC1)C(=O)N[C@H](Cc1ccccc1)C(=O)C(=O)NCc1nccs1 [Compound 393]	0.0882 ± 0.0056
COC[C@@H](NC(=O)CC1CCC(F)(F)CC1)C(=O)N[C@H](Cc1ccccc1)C(=O)C(=O)NCc1nccs1 [Compound 394]	0.0124 ± 0.0014
COC[C@@H](NC(=O)CC1CC1(F)F)C(=O)N[C@H](Cc1ccccc1)C(=O)C(=O)NCc1nccs1 (stereo partly drawn) [Compound 396]	0.0488 ± 0.0004
COC[C@@H](NC(=O)[C@H]1CC[C@@H](F)CC1)C(=O)N[C@H](Cc1ccccc1)C(=O)C(=O)NCc1nccs1 [Compound 399]	0.0328 ± 0.0015
O=C(NCc1nccs1)C(=O)[C@@H](Cc1ccccc1)NC(=O)[C@H]1CC(F)(F)CN1C(=O)CC1CCC(F)(F)CC1 [Compound 401]	0.019 ± 0.0001
O=C(NCc1nccs1)C(=O)[C@@H](Cc1ccccc1)NC(=O)[C@H]1CC(F)(F)CN1C(=O)C1CCCC(F)(F)C1 (stereo partly drawn) [Compound 403]	0.0204 ± 0.0024
O=C(NCc1nccs1)C(=O)[C@@H](Cc1ccccc1)NC(=O)[C@H]1CC(F)(F)CN1C(=O)C1CCC(F)(F)C1 (stereo partly drawn) [Compound 404]	0.0477 ± 0.001
O=C(NCc1nccs1)C(=O)[C@@H](Cc1ccccc1)NC(=O)[C@H]1CC(F)(F)CN1C(=O)CC1CC1(F)F (stereo partly drawn) [Compound 405]	0.104 ± 0.0017
O=C(NCc1nccs1)C(=O)[C@@H](Cc1ccccc1)NC(=O)[C@H]1CC(F)(F)CN1C(=O)[C@@H]1C[C@@H]2[C@H](C1)C2(F)F [Compound 406]	0.0527 ± 0.0011
O=C(NCc1nccs1)C(=O)[C@@H](Cc1ccccc1)NC(=O)[C@H]1COCCN1C(=O)C1CCC(F)(F)CC1 [Compound 407]	0.0214 ± 0.0003
O=C(NCc1nccs1)C(=O)[C@@H](Cc1ccccc1)NC(=O)[C@H]1COCCN1C(=O)CC1CC(F)(F)C1 [Compound 408]	0.0149 ± 0.0005
O=C(NCc1nccs1)C(=O)[C@@H](Cc1ccccc1)NC(=O)[C@H]1COCCN1C(=O)C1CCC(F)(F)C1 (stereo partly drawn) [Compound 409]	0.0366 ± 0.0004
O=C(NCc1nccs1)C(=O)[C@@H](Cc1ccccc1)NC(=O)[C@H]1COCCN1C(=O)C1CCCC(F)(F)C1 (stereo partly drawn) [Compound 410]	0.0253 ± 0.0017
